Reference: patent publication US20250236596A1, “HYDROXYLAMINE-BASED EGFR INHIBITORS FOR TREATMENT OF CANCER WITH BRAIN METASTASES” (University of Georgia Research Foundation, Inc., priority 2022, published 2025)
Entries after “also recorded” stand apart in the source; their conditions may differ.

Tests used:
CYP2D6 = CYP2D6 (Homo sapiens, UniProt P10635); test: CYP2D6 time-dependent inhibition IC50-shift; assay type: in vitro ADME; details: human liver microsomes and primary human hepatocytes; 30 min pre-incubation
Description: Incubations in human hepatocytes were carried out without pre-incubation or with a 30 min pre-incubation at 37° C., 5% CO2. The experiment was carried out at 37° C., 5% CO2 for 5 min.

[1] = tested on: NCI-H3255 NSCLC cell line (EGFR L858R); test: CellTiter-Glo viability assay, NCI-H3255; assay type: cell-based; details: Homo sapiens, 72 h, read-out: antiproliferative IC50
Description: (§1) The A431, HCC827, SK-BR-3, ZR-75-30, AU565 and Caco-2 cell lines were obtained from ATCC. The NCI-H1975 cell line was obtained from SIBS. The NCI-H3255 cell line was obtained from CoBioer. Engineered Ba/F3 cell lines were obtained from Crown Bioscience. MCKII-MDR1 cells were obtained from the Netherlands Cancer Institute. HEK293 cells were obtained from Invitrogen. A431 cells were cultured in DMEM (Life Technologies) with 10% FBS. HCC827, NCI-H1975 and AU565 cells were cultured in RPMI1640 (Invitrogen) with 10% FBS. NCI-H3255 cells were cultured in BEGM (Lonza) with 10% FBS. Ba/F3 EGFR-del E746_A750/C797S and Ba/F3 EGFR-L858R/C797S cells were cultured in RPMI (Invitrogen) with 10% FBS. SK-BR-3 cells were cultured in McCoy's 5a (Invitrogen) with 10% FBS. ZR-75-30 cells were cultured in RPMI1640 (Invitrogen) with 20% FBS. BT474 cells were cultured in DMEM (Gibco) with 10% FBS and 10 μg/mL Insulin. Caco-2 and MCKII-MDR1 culture information is given in the permeability studies section. […]
(§2) Viability assays using A431, HCC827, NCI-H1975, NCI-H3255, Ba/F3 EGFR-del E746_A750/C797S, Ba/F3 EGFR-L858R/C797S, AU565, SK-BR-3 and ZR-75-30 cells were performed at Crown BioScience. […] Dose-response curves were generated and used to calculate the IC50 values which were calculated on GraphPad Prism from the non-linear regression equation fitted with a sigmoidal dose response and are presented as the mean±SEM.

[2] = tested on: NCI-H1975 (EGFR L858R/T790M); test: CellTiter-Glo viability assay, NCI-H1975; assay type: cell-based, human; details: 72 h, result in words
Description: as §1, §2

[3] = tested on: HER2-positive breast cancer cell lines: AU565, SK-BR-3, BT474 and ZR-75-30; test: CellTiter-Glo viability assay, HER2+ breast cancer cell lines; assay type: cell-based, human; details: AU565, SK-BR-3, BT474, ZR-75-30; result in words
Description: as §1, §2

[4] = tested on: Chinese hamster ovary (CHO-K1) cells; test: In vitro micronucleus test; assay type: cell-based; details: for concentration to which negative micronucleus result is valid: cytotoxicity above
Description: Compound 15 was assessed for genotoxicity by Eurofins Panlabs. using the in vitro micronucleus test in Chinese hamster ovary (CHO-K1) cells as previously described.^22 Compound 15 was incubated in a 96-well plate format at varying concentrations (8, 16, 31, 62, 125, 250, 500 and 1000 μM) for 4 h at 37° C. with metabolic activation by rat liver S9 and 24 h at 37° C. without metabolic activation by rat liver S9. High content analysis and fluorescence imaging were used to detect micronuclei and compared against positive controls (cyclophosphamide (ran at 7.2 μM) and mitomycin C (ran at 0.3 μM)). Significances of the positive counts between the treatment and control were determined by one-tailed t-test with two sample equal variance.

hERG channel = target: T1, hERG channel (Homo sapiens, UniProt Q12809); test: hERG channel inhibition, manual patch clamp; assay type: cell-based
T1 construct: assay at Pharmaron Inc; host or cells: HEK293
Description: The potential inhibitory effect of compounds on the hERG channel was assessed by Pharmaron Inc. using the manual patch clamp system as previously described.^20 The HEK293 cell line (Invitrogen) stably transfected with the hERG gene was employed. Compounds were tested at 5 concentrations (0.37, 1.11, 3.33, 10 and 30 μM) and run in triplicate (n=3). IC50 values were determined by plotting the % inhibition against the concentration of compounds using GraphPad Prism from the non-linear regression equation fitted with a sigmoidal dose-response curve, and the IC50 values are presented as the mean±SEM.

[5] = tested on: Salmonella strains (TA98, TA100, TA1537 and TA1535); assay type: cell-based; details: bacterial cytotoxicity observed above
Description: Compounds were assessed for mutagenicity at Eurofins Panlabs. in 384-well plates using four Salmonella strains: TA98, to probe for frameshift mutation (with quercetin as control), TA100 and TA1535, to probe for base pair […] (with streptozotocin as control), and TA1537, to probe for frameshift mutations (with aminoacridine as control) as previously described.^21 Each compound was incubated at 37° C. for 96 h at four different concentrations (5, 10, 50, and 100 μM), with each concentration tested using 48 replicates, both with and without rat liver S9 metabolic activation. A concurrent bacterial cytotoxicity assay was ran at 0.6, 1.2, 2.5, 5, 10, 25, 50 and 100 μM to rule out false negatives. Bacterial cytotoxicity was expressed as percent of control growth (OD650). Compounds with growth of less than 60% control were flagged and considered bacterial cytotoxic. […] Significances of the positive counts between the treatment and control were determined using one-tailed Fisher's exact test.

[6] = tested on: A431 cell line (overexpressed EGFR wt); test: CellTiter-Glo viability assay, A431; assay type: cell-based, human
Description: as §1, §2

[7] = tested on: HCC827 NSCLC cells (EGFR del E746_A750); test: CellTiter-Glo viability assay, HCC827; assay type: cell-based; details: Homo sapiens; HCC827, EGFR del E746_A750, 72 h; read-out: antiproliferative IC50
Description: as §1, §2

T1 sequence (Q12809 whole entry): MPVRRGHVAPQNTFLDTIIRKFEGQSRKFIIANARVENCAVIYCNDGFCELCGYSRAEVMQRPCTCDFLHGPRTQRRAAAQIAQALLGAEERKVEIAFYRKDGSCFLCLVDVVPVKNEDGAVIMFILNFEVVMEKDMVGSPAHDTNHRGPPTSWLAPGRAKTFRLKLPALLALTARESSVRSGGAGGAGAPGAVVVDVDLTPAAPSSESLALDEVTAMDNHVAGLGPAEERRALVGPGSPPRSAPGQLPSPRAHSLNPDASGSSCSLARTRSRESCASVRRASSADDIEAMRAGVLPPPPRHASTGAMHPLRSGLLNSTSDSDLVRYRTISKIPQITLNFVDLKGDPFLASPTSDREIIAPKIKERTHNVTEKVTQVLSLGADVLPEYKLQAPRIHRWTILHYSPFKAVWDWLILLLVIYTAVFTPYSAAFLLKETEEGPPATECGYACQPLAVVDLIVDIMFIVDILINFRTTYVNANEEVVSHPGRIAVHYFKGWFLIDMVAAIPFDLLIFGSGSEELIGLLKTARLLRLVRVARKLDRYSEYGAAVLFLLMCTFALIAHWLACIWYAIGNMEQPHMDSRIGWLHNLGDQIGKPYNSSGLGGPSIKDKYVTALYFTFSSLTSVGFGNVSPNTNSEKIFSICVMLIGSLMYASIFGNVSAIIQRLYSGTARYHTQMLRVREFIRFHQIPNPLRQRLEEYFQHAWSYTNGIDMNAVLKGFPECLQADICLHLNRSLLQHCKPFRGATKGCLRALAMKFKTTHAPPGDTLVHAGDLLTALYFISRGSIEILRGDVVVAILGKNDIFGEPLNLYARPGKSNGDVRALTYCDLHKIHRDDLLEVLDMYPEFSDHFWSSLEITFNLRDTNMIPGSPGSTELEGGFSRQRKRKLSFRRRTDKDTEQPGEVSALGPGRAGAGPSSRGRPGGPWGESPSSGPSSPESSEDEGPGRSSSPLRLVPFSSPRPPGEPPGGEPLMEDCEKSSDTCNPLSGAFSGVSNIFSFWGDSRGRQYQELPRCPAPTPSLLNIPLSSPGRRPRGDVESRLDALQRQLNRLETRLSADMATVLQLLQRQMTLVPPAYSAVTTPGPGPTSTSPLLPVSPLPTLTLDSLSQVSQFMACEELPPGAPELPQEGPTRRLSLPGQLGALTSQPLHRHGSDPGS
Sequence of CYP2D6 (P10635 whole entry): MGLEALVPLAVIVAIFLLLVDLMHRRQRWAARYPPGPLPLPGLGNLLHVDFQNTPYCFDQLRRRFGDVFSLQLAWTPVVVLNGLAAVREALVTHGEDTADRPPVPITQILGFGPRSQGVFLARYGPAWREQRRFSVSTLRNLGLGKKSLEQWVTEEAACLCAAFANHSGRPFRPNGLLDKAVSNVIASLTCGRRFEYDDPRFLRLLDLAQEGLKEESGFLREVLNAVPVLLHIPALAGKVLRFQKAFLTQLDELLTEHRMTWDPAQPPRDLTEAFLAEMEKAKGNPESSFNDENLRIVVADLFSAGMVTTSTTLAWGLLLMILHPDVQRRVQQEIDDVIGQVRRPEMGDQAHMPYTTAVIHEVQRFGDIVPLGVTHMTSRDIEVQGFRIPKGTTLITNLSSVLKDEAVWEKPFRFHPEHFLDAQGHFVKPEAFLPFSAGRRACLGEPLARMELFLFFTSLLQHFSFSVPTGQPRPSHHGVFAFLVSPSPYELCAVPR

COc1cc2ncnc(Nc3cccc(Cl)c3F)c2cc1OCCON1CCN(C)CC1 [Compound 15, N-(3-chloro-2-fluorophenyl)-7-methoxy-6-(2-((4-methylpiperazin-1-yl)oxy)ethoxy)quinazolin-4-amine] was tested, and the “CYP2D6 time-dependent inhibition (TDI)” value (CYP2D6) was “not to be time dependent”, the IC50 [1] was 7.2 nM and the antiproliferative activity [2] was “no activity”. The antiproliferative activity [3] was “moderate antiproliferative activity”, the “concentration to which negative micronucleus result is valid” value ([4]; +rat liver S9) was ≤ 31 µM and the “genotoxicity in in vitro micronucleus test” value ([4]; CHO-K1, with and without rat liver S9) was “negative; also recorded: neither mutagenic nor genotoxic potential”. For the same compound, the “concentration to which negative micronucleus result is valid” value ([4]; −rat liver S9) was ≤ 8 µM, the IC50 (hERG channel; HEK293 cells transfected with hERG, patch clamp) was 6.48 µM and the hERG maximal inhibition (hERG channel; at 10 μM) was “approximately 60%”. The “concentration up to which negative ames result is valid” value [5] was “up to 50 uM”, the antiproliferative activity ([6]; A431, 72 h, result in words) was “minimal activity” and the IC50 ([6]; Homo sapiens, A-431, A431, overexpressed EGFR wt, 72 h, read-out: antiproliferative IC50) was 83 nM. The IC50 [7] was 3.1 nM.
